Measured values: patent US12144814B2, “Compositions containing paraxanthine and beta-hydroxybutyrate or precursor for increasing neurological and physiological performance” (priority 2023, dated 2024)

Legend:
mice [1] = experiment: Forced Swim Test on mice; format: in vivo
mice [2] = experiment: Cook's Pole Climbing Test on mice; format: in vivo
[3] = cited from earlier work
[4] = cited from earlier work; for half-life: elimination half-life, FIG. 3; for Total plasma clearance: in vivo
[5] = metabolite of caffeine, FIG. 2; cited from earlier work
dopaminergic neurons = details: cited from earlier work
healthy young adults [6] = experiment: Go/No Go Attention and Inhibitory Control Test; format: in vivo; details: 200 mg paraxanthine; 5 g BHB; 200 mg paraxanthine and 5 g BHB; baseline and 1-6 hours after supplementation; FIG. 4
Description: Attention and inhibitory control can be measured using a Go/No Go Test, which is used to measure a participant's capacity for sustained attention and response control. The Go/No Go Test is routinely used in the field, and will be familiar to those of skill in the art. In the Go/No Go Test, participants watch a 2×2 array of squares, and then there is a successive presentation of letters (e.g., either P or R) and the participant responds to a target letter by pressing the corresponding button on a keyboard. The single letter (P or R) is presented in one of the 4 squares for 500 milliseconds, with 1500 milliseconds between subsequent stimuli. For the P-Go condition, participants are asked to press the P key in response to the letter P, and abstain from responding to the letter R. For the R-reversal condition, the participants are asked to respond to the letter R, and abstain when seeing the letter P. Mean response time, as well as percentage of correct answers are recorded. When running each such tests, subjects are given either paraxanthine+BHB, paraxanthine alone, BHB alone, or a placebo. The dosage amounts are 200 mg paraxanthine and 5 g of BHB, 200 mg of paraxanthine alone, 5 g of BHB alone, or a placebo. The testing is conducted under double blind, placebo controlled conditions. […]

[7] = Age-related cognitive decline study; format: in vivo; details: BHB 5 g
[8] = Clinical Resting Energy Expenditure study; format: in vivo; details: paraxanthine 100 mg or 300 mg; BHB 5 g; paraxanthine 100 mg or 300 mg with BHB 5 g; 180-day period
Description: FIGS. 16A-16B show expected results of a clinical Resting Energy Expenditure study, where participants are supplemented with paraxanthine alone (100 mg or 300 mg), BHB alone (5 g), or paraxanthine (100 mg or 300 mg) in combination with BHB (5 g) over a 180-day period. […] Because of the presence of the BHB ketone body component, such increased metabolic rate is also more likely to occur within the context of ketogenic state, where fat is principally used as the caloric energy source for the increased resting metabolic rate.

[9] = Clinical Stroop Test study; format: in vivo; details: paraxanthine 200 mg; BHB 5 g; paraxanthine 200 mg with BHB 5 g; 6-week period; FIGS. 15A-15C
Description: The Stroop effect refers to the delay in reaction time between congruent and incongruent stimuli. […] When paired with paraxanthine, the combination provides a synergistic improvement in mental acuity.

healthy young adults [10] = experiment: Vigilance Task Test; format: in vivo; details: 200 mg paraxanthine; 5 g BHB; 200 mg paraxanthine and 5 g BHB; baseline and 1-6 hours after supplementation; FIG. 6
Description: The Vigilance Task Test is another test routinely used in the field, and is used to evaluate a participants ability to sustain attention. The Vigilance Task Test is a sustained attention, reaction timed task test that measures the speed with which participants respond to a visual stimulus. The subjects respond to visual stimuli (e.g., a red dot) by pressing a key as soon as it appears on the computer screen. The light turns on at random, e.g., roughly every couple of seconds or so during the test. The speed of response is measured. Due to the random nature of the test, there is no learning effect. Mean response time is recorded. When running each such tests, subjects are given either paraxanthine+BHB, paraxanthine alone, BHB alone, or a placebo. The dosage amounts are 200 mg paraxanthine and 5 g of BHB, 200 mg of paraxanthine alone, 5 g of BHB alone, or a placebo. The testing is conducted under double blind, placebo controlled conditions. The subjects include 13 healthy young adults (10 male, 3 female), aged 24±5 years; height 170.0±11.8 cm; weight 72.9±19.3 kg.

[11] = elevated doses; cited from earlier work

C[N+](C)(C)CCOP(=O)([O-])OC[C@H](O)CO [Alpha-GPC]
Duration of Immobility (mice [1]; Alpha-GPC 200 mg): 9.38 min | Duration of mobility/active swimming (mice [1]; Alpha-GPC 200 mg): 20.63 min | No. of Climbing (mice [2]; Alpha-GPC 200 mg): 5.5

CC(O)CC(=O)O (stereo not drawn) [beta-hydroxybutyric acid]
pKa [3]: 4.70

Cn1cnc2c1c(=O)[nH]c(=O)n2C [theobromine]
half-life [4]: 7.2 h | Total plasma clearance [4]: 1.2 mL/min/kg

Cn1c(=O)c2[nH]cnc2n(C)c1=O [theophylline]
half-life [4]: 6.2 h | Total plasma clearance [4]: 0.93 mL/min/kg | share of the methylxanthine metabolic by-products [5]: 4%

NCCS(=O)(=O)O [Taurine, taurine]
Duration of Immobility (mice [1]; Taurine 500 mg): 9.61 min | Duration of mobility/active swimming (mice [1]; Taurine 500 mg): 20.39 min | No. of Climbing (mice [2]; Taurine 500 mg): 6.5

Cn1c(=O)c2c(ncn2C)n(C)c1=O [caffeine]
Total plasma clearance [4]: 2.07 mL/min/kg | protection against neurodegeneration and the loss of synaptic function (dopaminergic neurons): marginal protection

CC(O)CC(=O)O (stereo not drawn) [BHB, beta-hydroxybutyrate]
Go/No Go Test correct responses (healthy young adults [6]): decrease in correct answers over time | Acetylcholine [7]: 58 U/mL | BDNF [7]: 775 pg/mL | Catalase [7]: 28 U/mL | Dopamine [7]: 475 ng/L | Escape Latency [7]: 50 s | Glutathione [7]: 22 µg/mL | Duration of Immobility (mice [1]; BHB 5 g): 9.5 min | Duration of mobility/active swimming (mice [1]; BHB 5 g): 20 min | No. of Climbing (mice [2]; BHB 5 g): 6 | resting energy expenditure [8]: only a minor benefit | Stroop test number of correct answers [9]: little if any benefit | Stroop test reaction speed [9]: little if any benefit | Vigilance Task Test average response time (healthy young adults [10]): significantly slower reaction times

NC(=O)C[S+]([O-])C(c1ccccc1)c1ccccc1 (centres unmarked) [modafinil]
hypothermia and reduced locomotor activity [11]: induce hypothermia and reduced locomotor activity

CCNC(=O)CC[C@H](N)C(=O)O [L-Theanine, L-theanine]
Duration of Immobility (mice [1]; L-Theanine 50 mg): 8.74 min | Duration of mobility/active swimming (mice [1]; L-Theanine 50 mg): 21.26 min | No. of Climbing (mice [2]; L-Theanine 50 mg): 4.38
